# According to ChEMBL document CHEMBL1201862, “PubChem BioAssay data set” (2004):
# The source made the active and inactive calls.
# Assays:
# Coagulation factor XII = molecular target: T1, Coagulation factor XII (Homo sapiens, UniProt P00748); type: functional;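 also: activated factor XIIa alpha cleaving a fluorogenic AMC peptide substrate; inhibitor potency from loss of enzyme activity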
# T1 sequence (P00748 whole entry): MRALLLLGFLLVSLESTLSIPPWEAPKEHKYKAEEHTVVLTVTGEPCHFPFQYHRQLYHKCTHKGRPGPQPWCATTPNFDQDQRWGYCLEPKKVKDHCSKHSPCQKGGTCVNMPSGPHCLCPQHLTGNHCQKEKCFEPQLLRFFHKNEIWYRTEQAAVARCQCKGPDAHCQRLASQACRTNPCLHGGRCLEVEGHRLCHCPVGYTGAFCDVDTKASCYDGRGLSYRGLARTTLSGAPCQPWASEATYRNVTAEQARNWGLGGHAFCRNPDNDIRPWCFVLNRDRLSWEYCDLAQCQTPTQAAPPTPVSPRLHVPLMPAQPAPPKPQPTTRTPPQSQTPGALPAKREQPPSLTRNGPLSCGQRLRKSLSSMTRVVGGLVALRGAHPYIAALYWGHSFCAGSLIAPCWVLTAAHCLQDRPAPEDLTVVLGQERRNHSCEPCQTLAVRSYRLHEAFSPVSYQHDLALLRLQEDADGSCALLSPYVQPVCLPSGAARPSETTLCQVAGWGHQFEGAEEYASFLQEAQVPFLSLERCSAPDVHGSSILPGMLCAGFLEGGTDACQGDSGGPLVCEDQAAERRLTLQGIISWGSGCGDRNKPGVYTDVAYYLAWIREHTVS
# HEK293 [1] = assay: cells; type: functional, cell-based; details: Homo sapiens
# HEK293 [2] = assay: NOD2 signaling inhibitors in MDP-stimulated cells, cell-based, uHTS, luminescence (AID 2001); type: functional; details: Homo sapiens
# HEK293 [3] = assay: cells; type: functional, cell-based; details: Homo sapiens; remark: listed apart in the source
# [4] = molecular target: Nucleotide-binding oligomerization domain-containing protein 2 (Homo sapiens, UniProt Q9HC29); assay: NOD2 signaling inhibitors, cell-based, luminescence, uHTS, HEK293 (AID 1566); type: functional
# Chain of Nucleotide-binding oligomerization domain-containing protein 2 (Q9HC29 whole entry, the tested form may be a part): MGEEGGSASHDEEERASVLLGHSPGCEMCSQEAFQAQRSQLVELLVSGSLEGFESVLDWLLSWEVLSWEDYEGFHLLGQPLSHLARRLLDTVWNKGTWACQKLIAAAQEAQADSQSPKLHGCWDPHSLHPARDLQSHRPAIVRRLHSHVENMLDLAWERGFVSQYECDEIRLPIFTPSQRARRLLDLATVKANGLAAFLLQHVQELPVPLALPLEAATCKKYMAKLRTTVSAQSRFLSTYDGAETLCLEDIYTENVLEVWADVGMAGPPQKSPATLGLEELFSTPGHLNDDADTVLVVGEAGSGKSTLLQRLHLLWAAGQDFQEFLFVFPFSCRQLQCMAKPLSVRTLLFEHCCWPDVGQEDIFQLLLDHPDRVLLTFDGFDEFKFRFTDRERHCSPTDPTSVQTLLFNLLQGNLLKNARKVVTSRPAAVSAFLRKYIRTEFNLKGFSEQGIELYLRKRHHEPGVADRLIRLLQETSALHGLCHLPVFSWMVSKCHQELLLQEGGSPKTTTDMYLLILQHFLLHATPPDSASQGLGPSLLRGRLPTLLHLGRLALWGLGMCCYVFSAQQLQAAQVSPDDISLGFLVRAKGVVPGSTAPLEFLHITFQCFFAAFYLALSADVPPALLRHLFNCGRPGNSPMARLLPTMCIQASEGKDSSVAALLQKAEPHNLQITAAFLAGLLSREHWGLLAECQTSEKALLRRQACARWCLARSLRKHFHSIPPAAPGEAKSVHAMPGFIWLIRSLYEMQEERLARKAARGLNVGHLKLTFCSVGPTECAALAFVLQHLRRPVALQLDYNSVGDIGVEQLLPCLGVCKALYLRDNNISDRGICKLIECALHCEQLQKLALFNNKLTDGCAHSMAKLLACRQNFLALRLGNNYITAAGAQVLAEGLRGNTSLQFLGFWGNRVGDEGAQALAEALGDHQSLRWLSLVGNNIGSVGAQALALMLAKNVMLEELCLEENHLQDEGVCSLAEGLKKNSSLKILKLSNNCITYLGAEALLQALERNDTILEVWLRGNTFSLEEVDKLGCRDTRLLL
# HEK293 [5] = assay: cells; type: functional, cell-based; details: Homo sapiens; remark: listed apart in the source
# HEK293 [6] = assay: NOD1 signaling inhibitors, primary screen, cell-based, luminescence, uHTS (AID 1578); type: functional; details: Homo sapiens
# [7] = THP-1 cell cytotoxicity, dose response, cytotoxicity control for non-replicating M. tuberculosis project (AID 489025); type: functional
# [8] = HepG2 cell cytotoxicity, dose response, cytotoxicity control for non-replicating M. tuberculosis project (AID 489018); type: functional; details: Mycobacterium tuberculosis
# [9] = Luminescence Cell-Based Dose Confirmation HTS to Identify Activators of 5'UTR Stem-Loop Driven Alpha-Synuclein mRNA Translation in H4 Neuroglioblastoma Cells. [Related pubchem assays: 1829 (Project Summary), 1814 (Primary HTS)]; type: functional
# [10] = Luminescence Cell-Based Dose Response HTS to Identify Activators of Luciferase Translation or Activity in H4 […] Cells. [Related pubchem assays: 1829 (Project Summary), 1814 (Primary HTS)]; type: functional
# [11] = Vero E6 cell cytotoxicity, dose response, cytotoxicity control for non-replicating M. tuberculosis project, secondary assay (AID 492998); type: functional, VeroE6; details: Vero C1008
# Leucine aminopeptidase = molecular target: T2, Leucine aminopeptidase (Plasmodium falciparum 3D7, UniProt Q8IL11); assay: P. falciparum M17LAP inhibitors, primary screen, biochemical, fluorogenic H-Leu-NHMec substrate, 1536-well (AID 1619); type: functional
# T2 sequence (Q8IL11 whole entry): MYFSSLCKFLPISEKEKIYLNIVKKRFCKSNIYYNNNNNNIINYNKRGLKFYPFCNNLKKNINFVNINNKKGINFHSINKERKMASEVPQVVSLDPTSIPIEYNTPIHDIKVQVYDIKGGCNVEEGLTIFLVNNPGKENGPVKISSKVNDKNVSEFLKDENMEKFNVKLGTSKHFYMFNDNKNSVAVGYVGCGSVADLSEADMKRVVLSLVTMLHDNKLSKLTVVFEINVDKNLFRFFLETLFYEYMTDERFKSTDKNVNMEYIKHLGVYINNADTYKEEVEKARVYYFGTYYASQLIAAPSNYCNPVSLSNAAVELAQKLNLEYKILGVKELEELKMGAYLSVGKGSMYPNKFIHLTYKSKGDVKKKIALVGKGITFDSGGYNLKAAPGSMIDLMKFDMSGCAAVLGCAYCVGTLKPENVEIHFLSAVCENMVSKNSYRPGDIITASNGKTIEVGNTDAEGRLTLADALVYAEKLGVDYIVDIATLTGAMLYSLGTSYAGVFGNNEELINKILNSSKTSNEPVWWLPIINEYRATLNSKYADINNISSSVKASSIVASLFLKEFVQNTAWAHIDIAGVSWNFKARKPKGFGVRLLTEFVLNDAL
# H4 = assay: Luminescence Cell-Based Dose Response HTS to Identify Activators of 5'UTR Stem-Loop Driven Prion Protein mRNA Translation in H4 Neuroglioblastoma Cells. [Related pubchem assays: 1829 (Project Summary), 1814 (Primary HTS)]; type: functional; details: Homo sapiens
# [12] = molecular target: Voltage-dependent T-type calcium channel subunit alpha-1H (Homo sapiens, UniProt O95180); type: functional;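 also: channel activity triggered by adding a high calcium stimulation buffer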
# Chain of Voltage-dependent T-type calcium channel subunit alpha-1H (O95180 whole entry): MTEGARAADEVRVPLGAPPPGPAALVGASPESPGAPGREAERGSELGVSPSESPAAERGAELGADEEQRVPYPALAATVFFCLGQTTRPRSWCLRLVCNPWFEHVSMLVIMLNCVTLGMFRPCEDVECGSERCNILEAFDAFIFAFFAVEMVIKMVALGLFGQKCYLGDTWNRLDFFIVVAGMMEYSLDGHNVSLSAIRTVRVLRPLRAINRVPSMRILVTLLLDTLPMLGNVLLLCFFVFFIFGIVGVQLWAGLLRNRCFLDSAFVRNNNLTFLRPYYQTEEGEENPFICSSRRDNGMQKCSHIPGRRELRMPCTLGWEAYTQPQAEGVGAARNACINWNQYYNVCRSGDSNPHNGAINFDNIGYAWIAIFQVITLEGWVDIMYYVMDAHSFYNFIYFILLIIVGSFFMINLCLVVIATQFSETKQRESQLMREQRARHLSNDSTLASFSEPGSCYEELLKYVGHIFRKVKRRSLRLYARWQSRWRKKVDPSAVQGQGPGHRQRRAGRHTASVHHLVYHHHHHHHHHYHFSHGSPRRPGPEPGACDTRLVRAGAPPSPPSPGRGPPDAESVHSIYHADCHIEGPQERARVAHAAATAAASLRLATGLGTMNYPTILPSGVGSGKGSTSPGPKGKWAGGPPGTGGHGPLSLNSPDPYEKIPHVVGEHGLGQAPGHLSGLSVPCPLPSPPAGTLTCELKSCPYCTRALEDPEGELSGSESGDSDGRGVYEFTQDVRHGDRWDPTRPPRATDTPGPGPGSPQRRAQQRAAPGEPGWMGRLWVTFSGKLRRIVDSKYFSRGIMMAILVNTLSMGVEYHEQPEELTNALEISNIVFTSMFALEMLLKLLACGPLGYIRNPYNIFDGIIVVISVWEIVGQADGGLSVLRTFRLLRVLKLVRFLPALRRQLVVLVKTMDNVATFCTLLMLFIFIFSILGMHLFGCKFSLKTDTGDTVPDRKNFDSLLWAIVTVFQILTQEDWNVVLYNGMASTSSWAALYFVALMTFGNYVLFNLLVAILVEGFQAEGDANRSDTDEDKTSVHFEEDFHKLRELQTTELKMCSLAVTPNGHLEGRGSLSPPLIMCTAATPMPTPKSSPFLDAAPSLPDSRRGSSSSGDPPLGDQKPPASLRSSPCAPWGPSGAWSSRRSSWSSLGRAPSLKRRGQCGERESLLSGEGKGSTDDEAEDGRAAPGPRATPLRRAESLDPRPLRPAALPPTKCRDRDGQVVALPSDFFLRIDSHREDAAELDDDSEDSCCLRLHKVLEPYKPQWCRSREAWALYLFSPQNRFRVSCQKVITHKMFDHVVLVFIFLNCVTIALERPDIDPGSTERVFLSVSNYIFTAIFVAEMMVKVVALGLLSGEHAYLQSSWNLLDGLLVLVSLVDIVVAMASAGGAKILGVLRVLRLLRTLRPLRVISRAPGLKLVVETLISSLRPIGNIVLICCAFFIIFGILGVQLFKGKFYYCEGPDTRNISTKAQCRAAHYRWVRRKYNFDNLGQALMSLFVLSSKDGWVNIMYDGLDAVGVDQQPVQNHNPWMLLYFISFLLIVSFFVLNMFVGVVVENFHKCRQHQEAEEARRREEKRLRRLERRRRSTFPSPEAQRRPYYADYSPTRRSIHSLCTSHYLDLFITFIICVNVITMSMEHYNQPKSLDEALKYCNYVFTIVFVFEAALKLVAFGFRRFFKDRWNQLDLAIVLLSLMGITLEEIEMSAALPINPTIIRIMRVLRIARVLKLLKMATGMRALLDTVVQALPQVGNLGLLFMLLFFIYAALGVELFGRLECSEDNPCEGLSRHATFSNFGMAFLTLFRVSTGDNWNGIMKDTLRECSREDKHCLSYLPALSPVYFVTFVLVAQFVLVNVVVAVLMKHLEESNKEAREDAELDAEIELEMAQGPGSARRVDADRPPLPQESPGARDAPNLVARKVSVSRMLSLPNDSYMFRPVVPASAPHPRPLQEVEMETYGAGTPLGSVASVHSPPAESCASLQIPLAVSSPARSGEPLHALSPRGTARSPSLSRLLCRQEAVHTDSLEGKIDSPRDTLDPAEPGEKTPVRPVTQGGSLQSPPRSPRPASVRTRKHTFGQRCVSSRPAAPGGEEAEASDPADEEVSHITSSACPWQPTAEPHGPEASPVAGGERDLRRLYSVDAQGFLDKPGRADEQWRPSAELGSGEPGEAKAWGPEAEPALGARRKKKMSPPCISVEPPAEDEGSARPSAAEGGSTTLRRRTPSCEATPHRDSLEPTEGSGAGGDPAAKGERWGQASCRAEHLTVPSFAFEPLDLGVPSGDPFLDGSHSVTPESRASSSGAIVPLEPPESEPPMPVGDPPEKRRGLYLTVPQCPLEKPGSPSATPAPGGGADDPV
# [13] = molecular target: Heat shock protein HSP 90-alpha (Homo sapiens, UniProt P07900); type: functional, organism-based
# cells = type: functional
# [14] = molecular target: T3, DNA repair and recombination protein RAD54-like (Homo sapiens, UniProt Q92698); assay: inhibitors of human RAD54 branch migration, confirmation, biochemical, fluorescence, cherry-picked samples, dose series (AID 651657); type: functional
# T3 sequence (Q92698 whole entry): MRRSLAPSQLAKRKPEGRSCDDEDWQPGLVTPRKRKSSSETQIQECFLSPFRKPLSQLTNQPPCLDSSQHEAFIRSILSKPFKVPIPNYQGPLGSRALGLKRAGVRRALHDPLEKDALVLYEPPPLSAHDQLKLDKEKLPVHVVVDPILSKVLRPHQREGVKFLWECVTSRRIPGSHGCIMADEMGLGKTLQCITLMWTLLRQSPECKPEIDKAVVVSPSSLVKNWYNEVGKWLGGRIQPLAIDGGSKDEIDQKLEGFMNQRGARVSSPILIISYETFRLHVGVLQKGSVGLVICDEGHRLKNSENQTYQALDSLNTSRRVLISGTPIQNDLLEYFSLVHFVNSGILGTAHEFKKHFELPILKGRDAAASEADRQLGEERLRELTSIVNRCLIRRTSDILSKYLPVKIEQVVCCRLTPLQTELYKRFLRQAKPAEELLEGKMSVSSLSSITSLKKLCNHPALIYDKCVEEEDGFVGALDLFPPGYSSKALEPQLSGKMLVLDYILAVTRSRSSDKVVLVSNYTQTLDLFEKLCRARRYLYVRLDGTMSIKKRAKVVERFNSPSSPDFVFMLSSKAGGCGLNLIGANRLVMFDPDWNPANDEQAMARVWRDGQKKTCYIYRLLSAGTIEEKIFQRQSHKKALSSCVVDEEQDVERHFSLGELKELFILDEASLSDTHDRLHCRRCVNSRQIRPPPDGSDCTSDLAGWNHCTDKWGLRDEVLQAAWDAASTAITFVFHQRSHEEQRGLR
# [15] = control 3'UTR Renilla luciferase suppression, dose response, counter-screen for Shn3 inhibitor project, cell-based, Clone20-Shn3RL, cherry-picked (AID 624133); type: functional
# [16] = inhibitors of HIV Env-driven cell fusion, dose response, cherry-pick (AID 652057); type: functional, cell-based
# [17] = HepG2 cell cytotoxicity, dose response, cytotoxicity control for Shn3 inhibitor project, CellTiter-Glo, cherry-picked (AID 624134); type: functional, cell-based
# [18] = inhibitors of clade B AD8 Env fusion, dose response, cell-based, cherry-pick (AID 652062); type: functional;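 also: luciferase signal from cell-cell fusion driven by HIV-1 clade B AD8 Env; potency is for inhibitors of fusion seen as a drop in luminescence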
# [19] = Shn3 3'UTR reporter inhibitors, dose response, cell-based, Clone20 osteoblasts, firefly luciferase, cherry-picked (AID 624132); type: functional;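 also: firefly luciferase luminescence from reporter carrying the Shn3 3'UTR in osteoblasts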
# [20] = ZM109 Env clade C HIV-1 fusion inhibitors, dose response, HeLa effector, CEM target cells, luciferase, cherry-pick (AID 652058); type: functional, cell-based
compound,measurement,setting,value
COc1ccc(-n2ncc3c(NCc4ccccn4)ncnc32)cc1,IC50,Coagulation factor XII,> 50 µM (inactive)
Cc1cc(C(=O)COc2cccnc2[N+](=O)[O-])c(C)n1Cc1ccco1,IC50,HEK293 [1],> 20 µM (inactive)
same,IC50,HEK293 [2],> 20 µM (inactive)
same,IC50,HEK293 [3],> 20 µM (inactive)
same,EC50,[4],13.1 µM (active)
same,IC50,HEK293 [5],18.2 µM (active)
same,EC50,HEK293 [6],> 20 µM (inactive)
CSC1=NSC2=NC(=O)/C(=C\c3cccs3)C(=N)N12,CC50,[7],> 40 µM (active)
same,CC50,[8],> 20 µM (active)
same,EC50,[9],8.94 µM (active)
same,EC50,[10],0.418 µM (active)
same,CC50,[11],> 20 µM (active)
same,IC50,Leucine aminopeptidase,32.2 µM (active)
same,EC50,H4,75 µM (active)
Cc1ccc(CNC(=O)c2ccc(Cn3nc(C)c(Cl)c3C)o2)cc1,EC50,[12],5.77 µM (active)
same,AC50,[13],8.04 µM (active)
CC12CCC(c3c(C(=O)N4CCOCC4)nn(-c4ccccc4)c31)C2(C)C (centres undefined),IC50,Coagulation factor XII,> 50 µM (inactive)
O=C(NCCCN1CCCC1)c1cc2c(Cl)nc3ccccc3c2s1,CC50,[7],38.7 µM (active)
same,IC50,cells,30.8 µM (active)
same,CC50,[8],> 20 µM (active)
same,AC50,[14],7.11 µM (active)
same,CC50,[11],> 20 µM (active)
Cc1cc(Cl)c(S(=O)(=O)N2CCSCC2)cc1OCC(=O)NC1CCCCC1,IC50,HEK293 [1],9.2 µM (active)
same,AC50,[15],5.08 µM (active)
same,IC50,HEK293 [2],3.6 µM (active)
same,AC50,[16],31.6 µM (active)
same,AC50,[17],4.04 µM (active)
same,AC50,[18],4.1 µM (active)
same,AC50,[19],4.11 µM (active)
same,IC50,HEK293 [3],> 20 µM (inactive)
same,EC50,[4],7.37 µM (active)
same,IC50,HEK293 [5],4.29 µM (active)
same,EC50,HEK293 [6],2.58 µM (active)
same,AC50,[20],1.06 µM (active)
